In patent publication EP1944293A1, “Alpha-Polymorph of a substituted pyrazoline, its preparation and use as medicaments” (Laboratorios del Dr. Esteve S.A., priority 2007, dated 2008):

Key:
[1] = Plasma leptin assay in dietary-induced obese rats; format: in vivo, female Wistar rats; conditions: Figure 5
Experimental: (§1) The experiment was performed on female Wistar rats (originally in the weight range 250-300 g). The rats were housed in pairs in polypropylene cages with solid floors and sawdust bedding at a temperature of 21±4°C and 55±20% humidity. Animals were maintained on a reverse phase light-dark cycle (lights off for 8 h from 09.30-17.30 h) during which time the room was illuminated by red light. Animals had free access to powdered high fat diet (VRF1 plus 20% lard), ground chocolate, ground peanuts and tap water at all times. The three different diets were contained in separate glass feeding jars with aluminum lids with a 3-4 cm hole cut in it to allow access to the food. Animals were housed in pairs for twelve weeks for the induction of obesity. Animals were then housed singly in polypropylene cages with wire grid floors to enable the food intake of each rat to be recorded. […] Animals were accustomed to these new conditions (individual housing and the wire-grid floor cages) for at least 14 days before the start of the baseline readings. […] Plasma leptin concentration was determined using Assay Designs rat leptin enzyme immunometric assay kits (Cat No. 900-015) according to the manufacturer's regular protocol. […] Optical density at 450 nm was determined using a Molecular Devices VERSAmax tunable microplate reader and readings transferred to GraphPad Prism. […]

[2] = Determination of carcass fat content in dietary-induced obese rats; format: in vivo, female Wistar rats; conditions: g per rat, Figure 4
Experimental: The experiment was performed on female Wistar rats (originally in the weight range 250-300 g). The rats were housed in pairs in polypropylene cages with solid floors and sawdust bedding at a temperature of 21±4°C and 55±20% humidity. Animals were maintained on a reverse phase light-dark cycle (lights off for 8 h from 09.30-17.30 h) during which time the room was illuminated by red light. Animals had free access to powdered high fat diet (VRF1 plus 20% lard), ground chocolate, ground peanuts and tap water at all times. The three different diets were contained in separate glass feeding jars with aluminum lids with a 3-4 cm hole cut in it to allow access to the food. Animals were housed in pairs for twelve weeks for the induction of obesity. Animals were then housed singly in polypropylene cages with wire grid floors to enable the food intake of each rat to be recorded. […] Animals were accustomed to these new conditions (individual housing and the wire-grid floor cages) for at least 14 days before the start of the baseline readings. […] Percentage fat in the freeze-dried sample was calculated as follows: % fat = [100 × (final cup weight-initial cup weight)]/sample weight [formula] Percentage fat in the original sample was calculated using the % water as follows: % fat in original sample = % fat[(100-%water)/100] […]

[3] = molecular target: T1, recombinant human cannabinoid 1 receptor (CB1) (Homo sapiens, UniProt P21554); experiment: In vitro determination of antagonism to CB1-receptor, [35S]GTPγS binding assay; format: biochemical; conditions: compound 1 µM versus agonist WIN 55,212-2; 100 % = maximal antagonism with Rimonabant (1 µM)
T1 construct: expressed in transfected cells
T1 sequence (P21554 whole entry): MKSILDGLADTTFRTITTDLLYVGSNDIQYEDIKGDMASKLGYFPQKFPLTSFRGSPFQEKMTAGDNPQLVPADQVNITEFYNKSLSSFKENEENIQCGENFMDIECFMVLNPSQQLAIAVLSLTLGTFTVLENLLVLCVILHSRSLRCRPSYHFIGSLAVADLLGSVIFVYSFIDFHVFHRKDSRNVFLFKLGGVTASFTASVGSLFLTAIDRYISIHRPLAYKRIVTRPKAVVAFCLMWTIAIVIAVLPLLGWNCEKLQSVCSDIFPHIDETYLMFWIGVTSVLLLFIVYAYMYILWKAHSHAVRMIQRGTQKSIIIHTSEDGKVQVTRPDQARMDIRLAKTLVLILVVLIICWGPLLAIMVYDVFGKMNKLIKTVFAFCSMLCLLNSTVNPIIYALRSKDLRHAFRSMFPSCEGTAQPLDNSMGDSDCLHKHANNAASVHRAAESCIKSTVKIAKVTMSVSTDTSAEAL
Experimental: The reaction is performed in 96-well plates. […] Radioactivity is determined using a Wallac Microbeta Trilux. Each experiment is performed at least in duplicate.
The average of basal [^35S]GTPγS binding is subtracted from all binding data.

[4] = Feeding study in dietary-induced obese rats: food intake and body weight; format: in vivo, female Wistar rats; conditions: end of 28 day treatment, Figure 3
Experimental: The experiment was performed on female Wistar rats (originally in the weight range 250-300 g). The rats were housed in pairs in polypropylene cages with solid floors and sawdust bedding at a temperature of 21±4°C and 55±20% humidity. Animals were maintained on a reverse phase light-dark cycle (lights off for 8 h from 09.30-17.30 h) during which time the room was illuminated by red light. Animals had free access to powdered high fat diet (VRF1 plus 20% lard), ground chocolate, ground peanuts and tap water at all times. The three different diets were contained in separate glass feeding jars with aluminum lids with a 3-4 cm hole cut in it to allow access to the food. Animals were housed in pairs for twelve weeks for the induction of obesity. Animals were then housed singly in polypropylene cages with wire grid floors to enable the food intake of each rat to be recorded. Polypropylene trays with cage pads were placed beneath each cage to detect any food spillage. Animals were accustomed to these new conditions (individual housing and the wire-grid floor cages) for at least 14 days before the start of the baseline readings. […] Food intake and body weight were measured once daily. […] Thus, means were adjusted for differences in body weight between the groups on Day 1 and standard errors of the mean (SEM) were calculated from the residuals of the statistical model. […]

[5] = Plasma insulin assay in dietary-induced obese rats; format: in vivo, female Wistar rats; conditions: Figure 6
Experimental: as §1, with “insulin” for “leptin”, “Mercodia ultrasensitive” for “Assay Designs”, “insulin ELISA” for “leptin enzyme immunometric assay”, “kits” for “kits (Cat No. 900-015)”, “manufacturers 50 µl sample” for “manufacturer's regular”

[6] = Stability of the crystalline form; format: physicochemical; conditions: under certain conditions, especially around room temperature, and/or over time
[7] = Solubility; format: physicochemical
[8] = molecular target: Herg channel (Homo sapiens, UniProt Q12809); experiment: Herg channel affinity; conditions: low risk of prolongation of the QT-interval expected
Herg channel, sequence (Q12809 whole entry): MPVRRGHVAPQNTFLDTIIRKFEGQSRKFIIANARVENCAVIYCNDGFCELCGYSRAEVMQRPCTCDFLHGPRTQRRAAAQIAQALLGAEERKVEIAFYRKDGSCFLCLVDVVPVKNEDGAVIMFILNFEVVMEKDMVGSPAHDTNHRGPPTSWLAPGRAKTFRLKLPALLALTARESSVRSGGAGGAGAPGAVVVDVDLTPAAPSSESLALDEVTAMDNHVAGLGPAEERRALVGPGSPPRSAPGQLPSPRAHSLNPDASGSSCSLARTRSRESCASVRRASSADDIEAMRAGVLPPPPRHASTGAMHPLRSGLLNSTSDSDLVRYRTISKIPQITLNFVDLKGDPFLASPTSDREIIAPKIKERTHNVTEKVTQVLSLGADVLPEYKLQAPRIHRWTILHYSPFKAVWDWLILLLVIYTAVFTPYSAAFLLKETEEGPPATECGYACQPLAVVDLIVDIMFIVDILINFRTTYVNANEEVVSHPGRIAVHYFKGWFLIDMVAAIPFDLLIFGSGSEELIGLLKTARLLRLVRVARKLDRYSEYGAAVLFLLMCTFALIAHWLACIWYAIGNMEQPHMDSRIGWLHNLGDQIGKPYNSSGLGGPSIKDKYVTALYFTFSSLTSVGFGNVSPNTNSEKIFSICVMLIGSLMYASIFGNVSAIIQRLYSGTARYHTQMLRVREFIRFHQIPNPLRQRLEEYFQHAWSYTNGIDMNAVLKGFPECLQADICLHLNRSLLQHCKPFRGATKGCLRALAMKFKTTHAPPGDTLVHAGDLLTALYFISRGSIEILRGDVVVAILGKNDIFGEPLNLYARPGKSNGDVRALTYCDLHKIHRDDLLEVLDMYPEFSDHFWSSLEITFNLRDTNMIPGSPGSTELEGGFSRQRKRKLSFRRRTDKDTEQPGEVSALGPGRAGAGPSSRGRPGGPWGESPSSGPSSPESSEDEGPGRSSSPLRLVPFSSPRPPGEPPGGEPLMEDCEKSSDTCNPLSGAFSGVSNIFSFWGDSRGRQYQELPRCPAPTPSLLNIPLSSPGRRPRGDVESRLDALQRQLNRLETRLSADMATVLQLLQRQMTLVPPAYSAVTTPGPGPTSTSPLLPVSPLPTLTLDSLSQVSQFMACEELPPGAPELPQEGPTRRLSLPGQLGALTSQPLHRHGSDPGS

[9] = 10 mg/kg po once daily for 28 days
[10] = 30 mg/kg po once daily for 28 days

Row | SMILES | decrease of plasma leptin levels compared to the vehicle-treated control group [1, 9] [%] | decrease of plasma leptin levels compared to the vehicle-treated control group [1, 10] [%] | decrease in body fat compared to the vehicle-treated control group [2, 9] [g] | decrease in body fat compared to the vehicle-treated control group [2, 10] [g] | Antagonism [%] [3] [%] | body weights lower than those of the vehicle-treated controls ([4]; 10 mg/kg po once daily) [%] | body weights lower than those of the vehicle-treated controls ([4]; 30 mg/kg po once daily) [%] | decrease of plasma insulin levels compared to the vehicle-treated control group [5, 9] [%] | decrease of plasma insulin levels compared to the vehicle-treated control group [5, 10] [%] | stability [6] | solubility [7] | Herg channel affinity [8]
1 | O=C(NN1CCCCC1)C1=NN(c2ccc(Cl)cc2Cl)[C@@H](c2ccc(Cl)cc2)C1 [Compound A, (R)-N-piperidinyl-5-(4-chlorophenyl)-1-(2,4-dichlorophenyl)-4,5-dihydro-1H-pyrazole-3-carboxamide] | 36.1 | 61.7 | 42.8 | 67.8 | 106 | 12.0 | 19.0 | 38.9 | 41.8 | – | – | –
2 | O=C(NN1CCCCC1)C1=NN(c2ccc(Cl)cc2Cl)[C@@H](c2ccc(Cl)cc2)C1 [α-Polymorph, α-Polymorph of (R)-N-piperidinyl-5-(4-chlorophenyl)-1-(2,4-dichlorophenyl)-4,5-dihydro-1H-pyrazole-3-carboxamide] | – | – | – | – | – | – | – | – | – | good stability | relatively good | relatively weak
